According to patent US20240300977A1, “INHIBITORS OF DNA-DEPENDENT PROTEIN KINASE AND COMPOSITIONS AND USES THEREOF” (Intellia Therapeutics, Inc., priority 2021, published 2024):

System: T cells
Test: HD3 TCR insertion within TRAC in T cells, flow cytometry
Type: cell-based, human
Conditions: Spy Cas9 + Compound 4, HD3 TCR AAV, day 7
Method: 48 hours post-activation, T cells were harvested, centrifuged at 500 g for 5 min, and resuspended at a concentration of 6.41×10^5 T cells/mL in T cell plating media (TCPM): a serum-free version of TCGM containing 400 U/mL recombinant human interleukin-2 (Peprotech, Cat. 200-02), 10 ng/mL recombinant human interleukin 7 (Peprotech, Cat. 200-07), and 10 ng/mL recombinant human interleukin 15 (Peprotech, Cat. 200-15). 50 μL of T cells in TCPM (3.2×10^4 T cells) were added per well to be treated in flat-bottom 96-well plates.
LNPs were generated as described in Example 1 at a ratio of 50/38.5/10/1.5 (Lipid A/cholesterol/DSPC/PEG2k-DMG).
Mix “A” was serially diluted 1:2 in TCTM, and mixed 1:1 by volume with mix “B”. 25 μL of the resulting solution was added to 3.2×10^4 T cells in 96-well plates.
Next, a repair template in the form of an adeno-associated virus (AAV) encoding the HD3 TCR (SEQ ID NO: 18 was diluted in TCTM to 3.84×10^11 genome copies/mL in the presence or absence of Compound 4 diluted to 2 μM. 25 μL of the resulting solution was added to T cells that were treated with LNPs in the prior step. To enable editing assessments by NGS without the interference of repair templates, an arm of this experiment received 25 μL of TCTM with or without Compound 4 diluted to 2 μM in the absence of AAVs.
Following the addition of LNPs, repair templates and Compound 4, T cells were incubated at 37° C. for 48 hours, at which time T cells were centrifuged at 500 g for 5 min, resuspended in 200 μL of TCGM and returned to the incubator.
Also on day 4 post-treatment, cells that received AAV templates were mixed and sub-cultured at a 1:4 ratio (v/v) in TCGM. On day 7 post-treatment, cells that received AAV templates were evaluated by flow cytometry.
On day 7 post-LNP treatment, 50 μL of cells were transferred to U-bottom 96-well plates and spun down for 5 min at 500 g. The supernatant was discarded, cells were resuspended in 100 μL of FACS buffer containing Viakrome 808 (Beckman C., Cat. C36628) (1:100), PC5.5 anti-CD3 (Biolegend, Cat. 317336) (1:200), BV421 anti-CD4 (Biolegend, Cat. 317434) (1:100), BV785 anti-CD8 (Biolegend, Cat. 301046) (1:100), and anti-V07.2 (Beckman C., IM3604) (1:50) and stained for 30 min at 4° C. in the dark. Cells were washed once with 200 μL of FACS buffer, resuspended in 100 μL of FACS buffer and processed on a Cytoflex LX flow cytometer.

## Cc1cc2ncnn2cc1Nc1ncc2c(n1)n(C1CCC3(CC1)CC3)c(=O)n2C [Compound 4, 7-methyl-2-((7-methyl-[1,2,4]triazolo[1,5-a]pyridin-6-yl)amino)-9-(spiro[2.5]octan-6-yl)-7,9-dihydro-8H-purin-8-one]
sgRNA 0 μg/mL
  Mean CD3^+ Vβ7.2^+ T Cells %: 0.79%
sgRNA 0.026 μg/mL
  Mean CD3^+ Vβ7.2^+ T Cells %: 35.20%
sgRNA 0.052 μg/mL
  Mean CD3^+ Vβ7.2^+ T Cells %: 44.50%
sgRNA 0.104 μg/mL
  Mean CD3^+ Vβ7.2^+ T Cells %: 52.60%
sgRNA 0.209 μg/mL
  Mean CD3^+ Vβ7.2^+ T Cells %: 56.10%
sgRNA 0.418 μg/mL
  Mean CD3^+ Vβ7.2^+ T Cells %: 53.80%
sgRNA 0.835 μg/mL
  Mean CD3^+ Vβ7.2^+ T Cells %: 53.30%
sgRNA 1.67 μg/mL
  Mean CD3^+ Vβ7.2^+ T Cells %: 49.65%
